{"source": "patent US20230242530A1", "about": "“8-(AZETIDIN-1-YL)-[1,2,4]TRIAZOLO[1,5-A]PYRIDINYL COMPOUNDS, COMPOSITIONS AND METHODS OF USE THEREOF” (Genentech, Inc., priority 2016, published 2023)", "key": {"[1]": {"target": "T1, isolated recombinant JAK1 kinase domain (Homo sapiens, UniProt P23458)", "T1 construct": "isolated recombinant JAK1 and JAK2 kinase domain", "T1 sequence (P23458 875-1153 limits assumed)": "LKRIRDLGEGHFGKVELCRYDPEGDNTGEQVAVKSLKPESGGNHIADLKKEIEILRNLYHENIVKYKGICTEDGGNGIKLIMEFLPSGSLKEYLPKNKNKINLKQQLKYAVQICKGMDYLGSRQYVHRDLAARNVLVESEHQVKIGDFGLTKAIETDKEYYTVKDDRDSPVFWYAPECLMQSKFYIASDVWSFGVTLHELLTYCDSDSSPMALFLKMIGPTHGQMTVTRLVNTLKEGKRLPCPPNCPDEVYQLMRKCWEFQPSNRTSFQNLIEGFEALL", "assay": "JAK enzyme assay, JAK1 kinase domain (Caliper LabChip)", "format": "biochemical", "details": "1.5 nM JAK1, ATP 25 μM, Morrison tight binding model", "outline": "(§1)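 Recombinant kinase domains phosphorylated a 5-carboxyfluorescein-labelled JAK3-derived peptide for 30 min at 22 °C, and the reaction was stopped with EDTA (50 mM final). Product fraction was measured by Caliper LabChip mobility shift. Ki came from Morrison tight-binding fits corrected for ATP competition (Ki=Ki,app/(1+[ATP]/Km,app)).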"}, "[2]": {"target": "T2, isolated recombinant JAK2 kinase domain (Homo sapiens, UniProt O60674)", "T2 construct": "isolated recombinant JAK1 and JAK2 kinase domain", "T2 sequence (O60674 849-1124 limits assumed)": "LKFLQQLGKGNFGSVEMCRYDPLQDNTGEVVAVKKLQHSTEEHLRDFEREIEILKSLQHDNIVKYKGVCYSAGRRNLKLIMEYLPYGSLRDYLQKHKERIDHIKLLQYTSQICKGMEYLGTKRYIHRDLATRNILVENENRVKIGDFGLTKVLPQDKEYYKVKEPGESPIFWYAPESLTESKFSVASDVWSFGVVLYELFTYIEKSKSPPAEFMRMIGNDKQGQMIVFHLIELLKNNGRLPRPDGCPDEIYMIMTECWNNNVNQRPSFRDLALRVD", "assay": "JAK enzyme assay, JAK2 kinase domain (Caliper LabChip)", "format": "biochemical", "details": "0.2 nM JAK2, ATP 25 μM, Morrison tight binding model", "outline": "as §1"}, "[3]": {"system": "JAK1-dependent STAT6 phosphorylation downstream of IL-13 stimulation in BEAS-2B cells", "assay": "JAK1 pathway assay in cell lines: IL-13 p-STAT6 BEAS-2B", "format": "cell-based", "details": "BEAS-2B human bronchial epithelial cells, 1 hr compound, IL-13 15 min, MSD readout", "outline": "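BEAS-2B cells plated a day ahead in complete growth medium; compounds added 1 hr at 37 °C (0.2% DMSO final), then IL-13 at lot-specific EC90 for 15 min at 37 °C. Phospho-STAT6 in lysates measured by MSD; EC50 is 50% inhibition relative to DMSO control.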"}}}
{"molecule": "CN(CC1(C#N)CC1)C1CCN(C(=O)Cn2cc(Nc3nc4c(N5CC(CC#N)(c6cccc(Cl)c6)C5)cccn4n3)cn2)CC1", "note": "[Example 100, 1-[[[1-[2-[4-[[8-[3-(3-chlorophenyl)-3-(cyanomethyl)azetidin-1-yl]-[1,2,4]triazolo[1,5-a]pyridin-2-yl]amino]pyrazol-1-yl]acetyl]-4-piperidyl]-methyl-amino]methyl]cyclopropane carbonitrile]", "values": [{"measurement": "Ki", "setting": "[1]", "value": 0.3, "unit": "nM"}, {"measurement": "Ki", "setting": "[2]", "value": 1.5, "unit": "nM"}, {"measurement": "EC50", "setting": "[3]", "value": 26, "unit": "nM"}]}
{"molecule": "CN1CCN(C(=O)Cn2cc(Nc3nc4c(N5CC(CC#N)(c6ccccc6)C5)cccn4n3)cn2)CC1", "note": "[Example 101]", "values": [{"measurement": "Ki", "setting": "[1]", "value": 0.3, "unit": "nM"}, {"measurement": "Ki", "setting": "[2]", "value": 0.2, "unit": "nM"}, {"measurement": "EC50", "setting": "[3]", "value": 16, "unit": "nM"}]}
{"molecule": "CN1CCN(C(=O)Cn2cc(Nc3nc4c(N5CC(CC#N)(Cc6cccc(Cl)c6)C5)cccn4n3)cn2)CC1", "note": "[Example 102, 2-[3-[(3-chlorophenyl)methyl]-1-[2-[[1-[2-(4-methylpiperazin-1-yl)-2-oxo-ethyl]pyrazol-4-yl]amino]-[1,2,4]triazolo[1,5-a]pyridin-8-yl]azetidin-3-yl]acetonitrile]", "values": [{"measurement": "Ki", "setting": "[1]", "value": 1.2, "unit": "nM"}, {"measurement": "Ki", "setting": "[2]", "value": 5.1, "unit": "nM"}, {"measurement": "EC50", "setting": "[3]", "value": 290, "unit": "nM"}]}
{"molecule": "N#CCC1(n2cc(C(F)(F)F)cn2)CN(c2cccn3nc(Nc4ccc(C(=O)N5CCN(C6COC6)CC5)cc4)nc23)C1", "note": "[Example 103, 2-[1-[2-[4-[4-(oxetan-3-yl)piperazine-1-carbonyl]anilino]-[1,2,4]triazolo[1,5-a]pyridin-8-yl]-3-[4-(trifluoromethyl)pyrazol-1-yl]azetidin-3-yl]acetonitrile]", "values": [{"measurement": "Ki", "setting": "[1]", "value": 0.3, "unit": "nM"}, {"measurement": "Ki", "setting": "[2]", "value": 1.7, "unit": "nM"}, {"measurement": "EC50", "setting": "[3]", "value": 33, "unit": "nM"}]}
{"molecule": "CN1CCN(C(=O)Cn2cc(Nc3nc4c(N5CC(CC#N)(n6cc(NCC(F)(F)F)cn6)C5)cccn4n3)cn2)CC1", "note": "[Example 104]", "values": [{"measurement": "Ki", "setting": "[1]", "value": 0.3, "unit": "nM"}, {"measurement": "Ki", "setting": "[2]", "value": 0.1, "unit": "nM"}, {"measurement": "EC50", "setting": "[3]", "value": 22, "unit": "nM"}]}
{"molecule": "CC(C)Sc1cnn(C2(CC#N)CN(c3cccn4nc(Nc5cnn(CC(=O)N6CCN(C)CC6)c5)nc34)C2)c1", "note": "[Example 105, 2-[3-(4-isopropylsulfanylpyrazol-1-yl)-1-[2-[[1-[2-(4-methylpiperazin-1-yl)-2-oxo-ethyl]pyrazol-4-yl]amino]-[1,2,4]triazolo[1,5-a]pyridin-8-yl]azetidin-3-yl]acetonitrile]", "values": [{"measurement": "Ki", "setting": "[1]", "value": 0.7, "unit": "nM"}, {"measurement": "Ki", "setting": "[2]", "value": 1.6, "unit": "nM"}, {"measurement": "EC50", "setting": "[3]", "value": 42, "unit": "nM"}]}
{"molecule": "CCc1cnn(C2(CC#N)CN(c3cccn4nc(Nc5ccc(C(=O)N6CCN(C)CC6)c(OC)c5)nc34)C2)c1", "note": "[Example 106, 2-[3-(4-ethylpyrazol-1-yl)-1-[2-[3-methoxy-4-(4-methylpiperazine-1-carbonyl)anilino]-[1,2,4]triazolo[1,5-a]pyridin-8-yl]azetidin-3-yl]acetonitrile]", "values": [{"measurement": "Ki", "setting": "[1]", "value": 0.5, "unit": "nM"}, {"measurement": "Ki", "setting": "[2]", "value": 1.3, "unit": "nM"}, {"measurement": "EC50", "setting": "[3]", "value": 40, "unit": "nM"}]}
{"molecule": "CC(C)(C#N)CCN1CCN(C(=O)Cn2cc(Nc3nc4c(N5CC(CC#N)(n6cc(C(F)(F)F)cn6)C5)cccn4n3)cn2)CC1", "note": "[Example 107, 4-[4-[2-[4-[[8-[3-(cyanomethyl)-3-[4-(trifluoromethyl)pyrazol-1-yl]azetidin-1-yl]-[1,2,4]triazolo[1,5-a]pyridin-2-yl]amino]pyrazol-1-yl]acetyl]piperazin-1-yl]-2,2-dimethyl-butanenitrile]", "values": [{"measurement": "Ki", "setting": "[1]", "value": 0.4, "unit": "nM"}, {"measurement": "Ki", "setting": "[2]", "value": 1.1, "unit": "nM"}, {"measurement": "EC50", "setting": "[3]", "value": 44, "unit": "nM"}]}
{"molecule": "CN(CC(C)(C)C#N)C1CCN(C(=O)Cn2cc(Nc3nc4c(N5CC(CC#N)(n6cc(C(F)(F)F)cn6)C5)cccn4n3)cn2)CC1", "note": "[Example 108, 3-[[1-[2-[4-[[8-[3-(cyanomethyl)-3-[4-(trifluoromethyl)pyrazol-1-yl]azetidin-1-yl]-[1,2,4]triazolo[1,5-a]pyridin-2-yl]amino]pyrazol-1-yl]acetyl]-4-piperidyl]-methyl-amino]-2,2-dimethyl-propanenitrile;formic acid]", "values": [{"measurement": "Ki", "setting": "[1]", "value": 0.6, "unit": "nM"}, {"measurement": "Ki", "setting": "[2]", "value": 0.4, "unit": "nM"}, {"measurement": "EC50", "setting": "[3]", "value": 37, "unit": "nM"}]}
{"molecule": "CN(CC1(C#N)CC1)C1CCN(C(=O)Cn2cc(Nc3nc4c(N5CC(CC#N)(n6cc(C(F)(F)F)cn6)C5)cccn4n3)cn2)CC1", "note": "[Example 109, 1-[[[1-[2-[4-[[8-[3-(cyanomethyl)-3-[4-(trifluoromethyl)pyrazol-1-yl]azetidin-1-yl]-[1,2,4]triazolo[1,5-a]pyridin-2-yl]amino]pyrazol-1-yl]acetyl]-4-piperidyl]-methyl-amino]methyl]cyclopropane carbonitrile]", "values": [{"measurement": "Ki", "setting": "[1]", "value": 0.5, "unit": "nM"}, {"measurement": "Ki", "setting": "[2]", "value": 0.4, "unit": "nM"}, {"measurement": "EC50", "setting": "[3]", "value": 58, "unit": "nM"}]}
{"molecule": "CN1CCN(C(=O)c2cccc(Nc3nc4c(N5CC(CC#N)(n6cc(C(F)(F)F)cn6)C5)cccn4n3)c2)CC1", "note": "[Example 110, formic acid;2-[1-[2-[3-(4-methylpiperazine-1-carbonyl)anilino]-[1,2,4]triazolo[1,5-a]pyridin-8-yl]-3-[4-(trifluoromethyl)pyrazol-1-yl]azetidin-3-yl]acetonitrile]", "values": [{"measurement": "Ki", "setting": "[1]", "value": 0.8, "unit": "nM"}, {"measurement": "Ki", "setting": "[2]", "value": 0.9, "unit": "nM"}, {"measurement": "EC50", "setting": "[3]", "value": 100, "unit": "nM"}]}
{"molecule": "CN1CCN(C(=O)c2cc(Nc3nc4c(N5CC(CC#N)(n6cc(C(F)(F)F)cn6)C5)cccn4n3)ccn2)CC1", "note": "[Example 111, 2-[1-[2-[[2-(4-methylpiperazine-1-carbonyl)-4-pyridyl]amino]-[1,2,4]triazolo[1,5-a]pyridin-8-yl]-3-[4-(trifluoromethyl)pyrazol-1-yl]azetidin-3-yl]acetonitrile]", "values": [{"measurement": "Ki", "setting": "[1]", "value": 0.7, "unit": "nM"}, {"measurement": "Ki", "setting": "[2]", "value": 0.4, "unit": "nM"}, {"measurement": "EC50", "setting": "[3]", "value": 39, "unit": "nM"}]}
{"molecule": "N#CCC1(n2cc(C(F)(F)F)cn2)CN(c2cccn3nc(Nc4cccc(C(=O)N5CCC(N6CCOCC6)CC5)c4)nc23)C1", "note": "[Example 112, formic acid;2-[1-[2-[3-(4-morpholinopiperidine-1-carbonyl)anilino]-[1,2,4]triazolo[1,5-a]pyridin-8-yl]-3-[4-(trifluoromethyl)pyrazol-1-yl]azetidin-3-yl]acetonitrile]", "values": [{"measurement": "Ki", "setting": "[1]", "value": 1, "unit": "nM"}, {"measurement": "Ki", "setting": "[2]", "value": 4.6, "unit": "nM"}, {"measurement": "EC50", "setting": "[3]", "value": 69, "unit": "nM"}]}
{"molecule": "CN1CCN(C(=O)c2ccc(Nc3nc4c(N5CC(CC#N)(n6cc(C7CCOCC7)cn6)C5)cccn4n3)cc2)CC1", "note": "[Example 113, 2-[1-[2-[4-(4-methylpiperazine-1-carbonyl)anilino]-[1,2,4]triazolo[1,5-a]pyridin-8-yl]-3-(4-tetrahydropyran-4-ylpyrazol-1-yl)azetidin-3-yl]acetonitrile]", "values": [{"measurement": "Ki", "setting": "[1]", "value": 0.4, "unit": "nM"}, {"measurement": "Ki", "setting": "[2]", "value": 0.6, "unit": "nM"}, {"measurement": "EC50", "setting": "[3]", "value": 43, "unit": "nM"}]}
{"molecule": "Cc1nn(C2(CC#N)CN(c3cccn4nc(Nc5cnn(CC(=O)N6CCN(C)CC6)c5)nc34)C2)cc1-c1ccccc1", "note": "[Example 114, formic acid;2-[3-(3-methyl-4-phenyl-pyrazol-1-yl)-1-[2-[[1-[2-(4-methylpiperazin-1-yl)-2-oxo-ethyl]pyrazol-4-yl]amino]-[1,2,4]triazolo[1,5-a]pyridin-8-yl]azetidin-3-yl]acetonitrile]", "values": [{"measurement": "Ki", "setting": "[1]", "value": 0.3, "unit": "nM"}, {"measurement": "Ki", "setting": "[2]", "value": 0.3, "unit": "nM"}, {"measurement": "EC50", "setting": "[3]", "value": 16, "unit": "nM"}]}
{"molecule": "N#CCC1(n2cc(C(F)(F)F)cn2)CN(c2cccn3nc(Nc4ccc(CC(=O)N5CCN(C6COC6)CC5)cc4)nc23)C1", "note": "[Example 115, 2-[1-[2-[4-[2-[4-(oxetan-3-yl)piperazin-1-yl]-2-oxo-ethyl]anilino]-[1,2,4]triazolo[1,5-a]pyridin-8-yl]-3-[4-(trifluoromethyl)pyrazol-1-yl]azetidin-3-yl]acetonitrile]", "values": [{"measurement": "Ki", "setting": "[1]", "value": 2.4, "unit": "nM"}, {"measurement": "Ki", "setting": "[2]", "value": 22.9, "unit": "nM"}, {"measurement": "EC50", "setting": "[3]", "value": 139, "unit": "nM"}]}
{"molecule": "CN1CCN(C(=O)Cc2ccc(Nc3nc4c(N5CC(CC#N)(n6cc(C(F)(F)F)cn6)C5)cccn4n3)cc2)CC1", "note": "[Example 116, formic acid;2-[1-[2-[4-[2-(4-methylpiperazin-1-yl)-2-oxo-ethyl]anilino]-[1,2,4]triazolo[1,5-a]pyridin-8-yl]-3-[4-(trifluoromethyl)pyrazol-1-yl]azetidin-3-yl]acetonitrile]", "values": [{"measurement": "Ki", "setting": "[1]", "value": 0.6, "unit": "nM"}, {"measurement": "Ki", "setting": "[2]", "value": 4, "unit": "nM"}, {"measurement": "EC50", "setting": "[3]", "value": 90, "unit": "nM"}]}
